Reference: ChEMBL document CHEMBL1201862, “PubChem BioAssay data set” (2004)
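1) Cells in 96-well plates. 2) Compound, 48 h, 5 concentrations. 3) Linear interpolation between surrounding doses. 4) Unreached endpoint = highest concentration. At the GI50, growth is halved.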 The source made the active and inactive calls. Cut-off read from the data, not from the text of the source: active = GI50 up to about 1.1 µM and inactive = higher.

Experiments:
Assay in all cases: DTP human tumour cell line panel, 48 h
[1] = system: HOP-92
[2] = system: OVCAR-3
[3] = system: SNB-78
[4] = system: SF-268
[5] = system: OVCAR-4
[6] = system: KM12
[7] = system: UACC-257
[8] = system: SW-620
[9] = system: HT-29
[10] = system: A498
[11] = system: SK-OV-3
[12] = system: M14
[13] = system: MOLT-4
[14] = system: COLO 205
[15] = system: RXF 393
[16] = system: MCF7
[17] = system: MDA-MB-231
[18] = system: BT-549

C=CC/N=C1\N=C(C)C(C(=O)OCC)S1 (configuration not stated)
GI50 [1]: > 100 µM (inactive)
GI50 [2]: > 100 µM (inactive)
GI50 [3]: > 100 µM (inactive)
GI50 [4]: > 100 µM (inactive)
GI50 [5]: > 100 µM (inactive)
GI50 [6]: > 100 µM (inactive)
GI50 [7]: > 100 µM (inactive)
GI50 [8]: > 100 µM (inactive)
GI50 [9]: > 100 µM (inactive)
GI50 [10]: > 100 µM (inactive)
GI50 [11]: > 100 µM (inactive)
GI50 [12]: > 100 µM (inactive)
GI50 [13]: > 100 µM (inactive)
GI50 [14]: > 100 µM (inactive)
GI50 [15]: > 100 µM (inactive)

CC(C)(C)c1cc([Si](C)(C)C)c(C#N)c([Si](C)(C)C)c1
GI50 [1]: > 100 µM (inactive)
GI50 [2]: > 100 µM (inactive)
GI50 [3]: 53.2 µM (inactive)
GI50 [4]: 41.7 µM (inactive)
GI50 [5]: > 100 µM (inactive)
GI50 [6]: 88.9 µM (inactive)
GI50 [7]: 34.3 µM (inactive)
GI50 [8]: > 100 µM (inactive)
GI50 [9]: 76.7 µM (inactive)
GI50 [10]: > 100 µM (inactive)
GI50 [11]: > 100 µM (inactive)
GI50 [12]: > 100 µM (inactive)
GI50 [13]: 37.2 µM (inactive)
GI50 [14]: 51.3 µM (inactive)
GI50 [15]: 36.6 µM (inactive)

Cc1ccc(CC(C)N)cc1 (configuration not stated)
GI50 [1]: > 100 µM (inactive)
GI50 [2]: > 100 µM (inactive)
GI50 [3]: > 100 µM (inactive)
GI50 [4]: > 100 µM (inactive)
GI50 [5]: > 100 µM (inactive)
GI50 [6]: > 100 µM (inactive)
GI50 [7]: > 100 µM (inactive)
GI50 [8]: > 100 µM (inactive)
GI50 [9]: > 100 µM (inactive)
GI50 [10]: > 100 µM (inactive)
GI50 [11]: > 100 µM (inactive)
GI50 [12]: > 100 µM (inactive)
GI50 [13]: > 100 µM (inactive)
GI50 [14]: > 100 µM (inactive)
GI50 [15]: > 100 µM (inactive)

COc1cc([C@@H]2c3cc4c(cc3[C@@H](NC(=O)c3cccc(C#N)c3)C3COC(=O)[C@@H]32)OCO4)cc(OC)c1O (some centres not stated)
GI50 [1]: 0.498 µM (active)
GI50 [2]: 2.75 µM (inactive)
GI50 [3]: 9.33 µM (inactive)
GI50 [4]: 1.32 µM (inactive)
GI50 [5]: 16.7 µM (inactive)
GI50 [6]: 1.39 µM (inactive)
GI50 [7]: 6.17 µM (inactive)
GI50 [8]: 0.583 µM (active)
GI50 [9]: 1.85 µM (inactive)
GI50 [10]: 1.26 µM (inactive)
GI50 [11]: 0.912 µM (active)
GI50 [12]: 1.11 µM (active)
GI50 [13]: 15.1 µM (inactive)
GI50 [14]: 2.96 µM (inactive)
GI50 [15]: 3.18 µM (inactive)

Cc1cc(O)nc(NNC(C#N)c2ccco2)n1 (configuration not stated)
GI50 [1]: > 100 µM (inactive)
GI50 [2]: > 100 µM (inactive)
GI50 [3]: > 100 µM (inactive)
GI50 [4]: > 100 µM (inactive)
GI50 [5]: > 100 µM (inactive)
GI50 [6]: > 100 µM (inactive)
GI50 [7]: > 100 µM (inactive)
GI50 [8]: > 100 µM (inactive)
GI50 [9]: > 100 µM (inactive)
GI50 [11]: > 100 µM (inactive)
GI50 [12]: > 100 µM (inactive)
GI50 [13]: > 100 µM (inactive)
GI50 [14]: > 100 µM (inactive)
GI50 [15]: > 100 µM (inactive)

CN(C(=O)c1ccc([N+](=O)[O-])cc1)c1ccccc1
GI50 [1]: > 100 µM (inactive)
GI50 [2]: > 100 µM (inactive)
GI50 [3]: > 100 µM (inactive)
GI50 [4]: > 100 µM (inactive)
GI50 [5]: > 100 µM (inactive)
GI50 [6]: > 100 µM (inactive)
GI50 [7]: > 100 µM (inactive)
GI50 [8]: > 100 µM (inactive)
GI50 [9]: > 100 µM (inactive)
GI50 [10]: > 100 µM (inactive)
GI50 [11]: > 100 µM (inactive)
GI50 [12]: > 100 µM (inactive)
GI50 [13]: > 100 µM (inactive)
GI50 [14]: > 100 µM (inactive)
GI50 [15]: 21.6 µM (inactive)

COc1ccc2nc3ccccc3c(NCCCCCCN(CCCl)CCCl)c2c1
GI50 [16]: 0.01 µM (active)
GI50 [1]: 0.124 µM (active)
GI50 [2]: 0.0627 µM (active)
GI50 [3]: 0.223 µM (active)
GI50 [4]: 0.0649 µM (active)
GI50 [17]: 0.486 µM (active)
GI50 [5]: 0.158 µM (active)
GI50 [6]: 0.151 µM (active)
GI50 [18]: 0.323 µM (active)
GI50 [7]: 1.6 µM (inactive)
GI50 [8]: 0.0199 µM (active)
GI50 [9]: 0.0248 µM (active)
GI50 [10]: 0.405 µM (active)
GI50 [11]: 0.226 µM (active)
GI50 [12]: 0.0946 µM (active)
GI50 [13]: 0.0124 µM (active)
GI50 [14]: 0.014 µM (active)
GI50 [15]: 0.187 µM (active)

C/C(=N\NC(N)=S)c1ccc(C)c(C)c1
GI50 [1]: 93.3 µM (inactive)
GI50 [2]: 22.8 µM (inactive)
GI50 [3]: > 100 µM (inactive)
GI50 [4]: > 100 µM (inactive)
GI50 [5]: 23.9 µM (inactive)
GI50 [6]: 44.5 µM (inactive)
GI50 [7]: 44.2 µM (inactive)
GI50 [8]: 52.8 µM (inactive)
GI50 [9]: 19.4 µM (inactive)
GI50 [10]: 66.7 µM (inactive)
GI50 [11]: 75.7 µM (inactive)
GI50 [12]: 41.7 µM (inactive)
GI50 [13]: 15.8 µM (inactive)
GI50 [14]: 26.9 µM (inactive)
GI50 [15]: 23 µM (inactive)

CC(C)N(C(=O)C12CC3CC(CC(C3)C1)C2)C(C)C
GI50 [1]: > 50 µM (inactive)
GI50 [2]: > 50 µM (inactive)
GI50 [3]: > 50 µM (inactive)
GI50 [4]: > 50 µM (inactive)
GI50 [5]: > 50 µM (inactive)
GI50 [6]: > 50 µM (inactive)
GI50 [7]: > 50 µM (inactive)
GI50 [8]: > 50 µM (inactive)
GI50 [9]: > 50 µM (inactive)
GI50 [10]: > 50 µM (inactive)
GI50 [11]: > 50 µM (inactive)
GI50 [12]: > 50 µM (inactive)
GI50 [13]: > 50 µM (inactive)
GI50 [14]: > 50 µM (inactive)
GI50 [15]: > 50 µM (inactive)
